For orientation: inhibition means the drop in the measured response relative to a control, in per cent. A high value points to strong suppression.

Eight compounds from the Kinase Knowledgebase extract (Sharma et al. 2016) can be followed below.

This assay deals with CDK2 (UniProt P24941). Briefly: Enzyme Assay. Particulars: concentration not given here.

`CS(=O)(=O)c1ccccc1S(=O)(=O)Nc1ccc2[nH]nc(/C=C/c3ccc(Cl)cc3)c2c1` registered an inhibition of 96%.

`CS(=O)(=O)c1ccc(-c2n[nH]c3ccc(NS(=O)(=O)c4ccccc4S(C)(=O)=O)cc23)cc1` yielded an inhibition of 75%.

`CC(=O)Nc1ccc(S(=O)(=O)Nc2ccc3[nH]nc(-c4ccccc4)c3c2)cc1` displayed an inhibition of 73%.

On to `CS(=O)(=O)c1ccccc1S(=O)(=O)Nc1ccc2[nH]nc(-c3cc(C(F)(F)F)cc(C(F)(F)F)c3)c2c1`, for which the inhibition stood at 28%.

Compound `Cc1cccc(S(=O)(=O)Nc2ccc3[nH]nc(-c4ccccc4)c3c2)c1` showed an inhibition of 72%.

`COC(=O)c1cccc(-c2n[nH]c3ccc(NS(=O)(=O)c4ccccc4S(C)(=O)=O)cc23)c1` gave an inhibition of 64%.

`O=S(=O)(Nc1ccc2[nH]nc(-c3ccccc3)c2c1)c1cccc2ccccc12` showed an inhibition of 90%.

With `CS(=O)(=O)c1ccccc1S(=O)(=O)Nc1ccc2[nH]nc(-c3cccc(F)c3F)c2c1`, the inhibition amounted to 50%.
